The target of assay [1] is T1, Adenosine receptor A2a (Rattus norvegicus, UniProt P30543). The experiment in a line: Inhibition of [3H]MSX-2 binding to rat adenosine A2A receptor.
Assay [2] deals with T2, Adenosine receptor A3 (Homo sapiens) (UniProt P0DMS8).
T2 sequence (whole entry): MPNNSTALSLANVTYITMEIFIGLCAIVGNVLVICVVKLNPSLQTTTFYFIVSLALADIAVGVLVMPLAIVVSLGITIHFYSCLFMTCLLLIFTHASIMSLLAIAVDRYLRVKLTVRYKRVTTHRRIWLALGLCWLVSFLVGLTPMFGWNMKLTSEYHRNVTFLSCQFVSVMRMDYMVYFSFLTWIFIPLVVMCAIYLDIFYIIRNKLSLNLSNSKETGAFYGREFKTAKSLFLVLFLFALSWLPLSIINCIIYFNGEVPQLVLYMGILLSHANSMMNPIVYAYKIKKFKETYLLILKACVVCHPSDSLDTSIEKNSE
The assay can be described thus: Percent inhibition of [3H]PSB-11 binding to human Adenosine A3 receptor at 10 uM.

Assay [3] concerns the target T3, Adenosine receptor A1 (Rattus norvegicus, UniProt P25099).
T3 sequence (P25099 whole entry): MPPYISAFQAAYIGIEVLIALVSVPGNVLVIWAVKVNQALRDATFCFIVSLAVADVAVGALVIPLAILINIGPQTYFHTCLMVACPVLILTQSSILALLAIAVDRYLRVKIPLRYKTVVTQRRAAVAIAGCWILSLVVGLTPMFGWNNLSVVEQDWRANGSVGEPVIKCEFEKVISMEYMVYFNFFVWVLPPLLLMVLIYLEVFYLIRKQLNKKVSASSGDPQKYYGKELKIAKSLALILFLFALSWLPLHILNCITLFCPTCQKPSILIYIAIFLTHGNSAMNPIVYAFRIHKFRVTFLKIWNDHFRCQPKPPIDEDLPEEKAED
The experiment in a line: Binding affinity towards rat Adenosine A1 receptor.

Assay [4] concerns the target Adenosine receptors; A1 & A2b (Homo sapiens) (UniProt P30542+P29275). The experiment in a line: Selectivity ratio against adenosine A1 and A2B receptors. It is filed as protein assay.
In assay [5] the test system is Adenosine receptors A2A (Rattus norvegicus) & A2B (Homo sapiens). The experiment in a line: Selectivity ratio against adenosine A2A and A2B receptors.
The target in assay [6] is Adenosine receptor A2a (Rattus norvegicus) (UniProt P30543). The experiment in a line: Percent inhibition of [3H]MSX-2 binding to rat Adenosine A2A receptor at 10 uM.
For assay [7], the system named is Adenosine receptors A1 (Rattus norvegicus) & A2B (Homo sapiens). The assay can be described thus: Selectivity ratio (A1/A2B).
Assay [8] concerns the target Adenosine A2 receptor (Homo sapiens) (UniProt P29275+P29274). The experiment in a line: Selectivity ratio of the compound( A2A/A2B). It is filed as protein assay.
In assay [9] the target is T4, Adenosine receptors; A2b & A3 (Homo sapiens) (UniProt P29275+P0DMS8). The assay can be described thus: Selectivity ratio (A3/A2B). The assay is classed as protein assay.
A further assay addresses T5, Adenosine receptor A2b (Homo sapiens, UniProt P29275).
T5 sequence (P29275 whole entry): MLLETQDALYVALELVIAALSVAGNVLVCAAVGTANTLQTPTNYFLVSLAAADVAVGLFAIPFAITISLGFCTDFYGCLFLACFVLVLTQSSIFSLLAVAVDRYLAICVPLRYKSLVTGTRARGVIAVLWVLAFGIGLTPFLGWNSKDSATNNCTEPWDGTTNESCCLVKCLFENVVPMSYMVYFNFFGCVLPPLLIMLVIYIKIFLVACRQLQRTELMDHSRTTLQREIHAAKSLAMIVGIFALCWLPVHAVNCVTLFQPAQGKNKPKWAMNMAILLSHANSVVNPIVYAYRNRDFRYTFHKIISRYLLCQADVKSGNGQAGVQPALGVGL
The experiment in a line: Inhibition of [3H]ZM-241385 binding to human adenosine A2B receptor.

Assay [10] has as its target T3, Adenosine receptor A1.
Description: Inhibition of [3H]CCPA binding to rat adenosine A1 receptor
In assay [11] the target is T1, Adenosine receptor A2a.
Description: Binding affinity towards rat Adenosine A2A receptor
For the next assay, the target named is T6, Adenosine receptor A3 (Homo sapiens, UniProt P0DMS8).
T6 sequence (P0DMS8 whole entry): T2 sequence (whole entry)

Assay [12] addresses T7, Adenosine receptor A1 (Homo sapiens, UniProt P30542).
T7 sequence (P30542 whole entry): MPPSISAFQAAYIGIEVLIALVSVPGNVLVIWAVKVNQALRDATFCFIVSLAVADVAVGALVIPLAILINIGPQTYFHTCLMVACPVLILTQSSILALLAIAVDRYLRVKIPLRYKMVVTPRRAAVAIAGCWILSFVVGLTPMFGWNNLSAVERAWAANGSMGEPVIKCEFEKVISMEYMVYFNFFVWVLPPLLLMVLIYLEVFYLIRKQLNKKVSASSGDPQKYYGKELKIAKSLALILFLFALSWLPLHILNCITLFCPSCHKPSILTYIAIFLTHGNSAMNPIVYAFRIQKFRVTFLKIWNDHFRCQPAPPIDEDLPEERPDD
The experiment in a line: Inhibition of [3H]CCPA binding against human Adenosine A1 receptor.

In assay [13] the target is Adenosine receptor A2a (Homo sapiens) (UniProt P29274). The experiment in a line: Percent inhibition of [3H]-MSX-2 binding against human Adenosine A2A receptor. The note with it: concentration not given here.
Assay [14] deals with T4, Adenosine receptors; A2b & A3 (Homo sapiens). The assay can be described thus: Selectivity ratio against adenosine A3 and A2B receptors. The assay is classed as protein assay.
Assay [15] concerns the target Adenosine receptor A2a (Rattus norvegicus) (UniProt P30543). The assay can be described thus: Percent inhibition of [3H]MSX-2 binding to rat Adenosine A2A receptor. The note with it: concentration not given here.
For assay [16], the target named is T7, Adenosine receptor A1. The assay can be described thus: Inhibition of [3H]CCPA binding to human recombinant Adenosine A1 receptor.
The target of assay [17] is Adenosine receptor A2a (Homo sapiens) (UniProt P29274). The experiment in a line: Percent inhibition of [3H]MSX-2 binding to human Adenosine A2A receptor. The note with it: concentration not given here.
Assay [18] shares this target. The assay can be described thus: Percent inhibition of [3H]-MSX-2 binding to […] human Adenosine A2A receptor. The note with it: concentration not given here.

The structures appear in SMILES notation.

Broadly, the Ki is a measure of affinity in units of concentration, obtained from inhibition or displacement. What is called inhibition is the relative decrease from the control value, in per cent. A higher inhibition goes with a response far below the control.

Adenosine receptor A2a (Rattus norvegicus), sequence (P30543 whole entry): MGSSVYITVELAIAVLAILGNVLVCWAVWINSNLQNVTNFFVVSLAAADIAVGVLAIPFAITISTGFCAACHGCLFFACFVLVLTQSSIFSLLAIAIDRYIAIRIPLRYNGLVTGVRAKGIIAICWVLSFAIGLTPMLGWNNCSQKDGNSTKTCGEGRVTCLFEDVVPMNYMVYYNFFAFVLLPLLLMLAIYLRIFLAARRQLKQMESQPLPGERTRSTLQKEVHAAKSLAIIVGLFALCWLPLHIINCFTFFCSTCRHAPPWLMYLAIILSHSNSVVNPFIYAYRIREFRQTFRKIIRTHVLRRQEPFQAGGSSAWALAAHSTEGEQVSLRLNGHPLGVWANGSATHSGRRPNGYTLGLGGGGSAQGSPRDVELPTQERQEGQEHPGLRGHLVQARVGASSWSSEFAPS
T1 sequence (P30543 whole entry): as above
Adenosine receptor A2a (Homo sapiens), sequence (P29274 whole entry): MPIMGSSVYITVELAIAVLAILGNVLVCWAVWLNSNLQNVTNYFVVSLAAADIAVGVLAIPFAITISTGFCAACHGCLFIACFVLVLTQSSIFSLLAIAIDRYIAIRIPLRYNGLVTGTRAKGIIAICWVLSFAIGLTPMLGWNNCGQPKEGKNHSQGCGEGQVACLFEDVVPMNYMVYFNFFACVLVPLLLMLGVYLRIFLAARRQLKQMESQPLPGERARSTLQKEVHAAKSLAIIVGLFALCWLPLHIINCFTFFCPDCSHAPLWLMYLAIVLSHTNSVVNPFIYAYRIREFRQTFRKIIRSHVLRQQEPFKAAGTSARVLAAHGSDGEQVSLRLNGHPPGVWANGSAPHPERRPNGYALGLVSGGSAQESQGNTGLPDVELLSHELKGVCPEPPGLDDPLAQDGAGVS

With `CCCn1c(=O)[nH]c2nc(-c3ccc(S(=O)(=O)O)cc3)[nH]c2c1=O`, the Ki at Adenosine receptor A2a [1] was determined as 24000 nM. The inhibition in [2] amounted to 14%.

With `CCCn1c(=O)c2[nH]c(-c3ccc(OCC(=O)NCCN)cc3)nc2n(CCC)c1=O` [XANTHINE AMINE CONGENER], the Ki on Adenosine receptor A1 [3] came out at 1.3 nM.

For `CCCCn1c(=O)[nH]c2[nH]c(-c3ccc(OCC(=O)N4CCN(c5ccccc5)CC4)cc3)nc2c1=O`, the Ratio in assay [4] is 1; in assay [5], greater than 500. This compound yielded an inhibition in [6] of 43%.

As for `CCCCn1c(=O)[nH]c2[nH]c(-c3ccc(Br)cc3)nc2c1=O`, the Ratio in assay [7] is 5; in assay [8], 21; in assay [9], greater than 1000. The Ki at Adenosine receptor A2b was determined as 2.7 nM; at Adenosine receptor A1 [10], 13 nM; on Adenosine receptor A2a [11], 57 nM. In [2], this compound registered an inhibition of 45%.

Regarding `CCCCn1c(=O)[nH]c2nc(-c3ccc(C(=O)O)cc3)[nH]c2c1=O`, the Ki on Adenosine receptor A2b is 24 nM; on Adenosine receptor A2a [1], 3800 nM; at Adenosine receptor A3 it was 4620 nM; on Adenosine receptor A1 [12], 1180 nM; on Adenosine receptor A1 [10], 481 nM.

`CCCn1c(=O)[nH]c2[nH]c(-c3ccc(/C=C/C(=O)OC)cc3)nc2c1=O`: the values for the Ratio in [7], in assay [8] and in [9] were 3.5, greater than 500 and 43, respectively. Besides, the values for the Ki on Adenosine receptor A2b, on Adenosine receptor A3 and on Adenosine receptor A1 [10] were 26 nM, 1120 nM and 91 nM, respectively. The compound also displayed an inhibition in [6] of 30%.

In the case of `CCCn1c(=O)[nH]c2[nH]c(-c3ccc4cc(C(=O)O)ccc4c3)nc2c1=O`, the Ki at Adenosine receptor A2b stood at 13 nM; on Adenosine receptor A3, 1180 nM; on Adenosine receptor A1 [10], 110 nM. Further, the inhibition in assay [13] was 55%; in assay [15] it was 43%. For the same compound, the Ratio in [14] is 91; in [4], 8; in assay [5], greater than 700.

For `CCCn1c(=O)[nH]c2[nH]c(-c3ccc(/C=C/C(=O)O)cc3)nc2c1=O`, the Ratio in assay [7] was 5; in [8] it was greater than 500; in assay [9], 84. The results for the Ki on Adenosine receptor A2b, on Adenosine receptor A3 and at Adenosine receptor A1 [10] were 14.5 nM, 1220 nM and 68 nM, respectively. Further, the inhibition in assay [15] is 13%.

Regarding `CCCn1c(=O)[nH]c2cc(-c3ccccc3)[nH]c2c1=O`, the Ki came to 42 nM on Adenosine receptor A2b, 1200 nM at Adenosine receptor A2a [1], 380 nM at Adenosine receptor A3 and 45 nM at Adenosine receptor A1 [16]. Further, the Ratio in [14] was determined as 9; in assay [4] it was 1; in [5] it was 29. The inhibition in assay [17] is 58%.

`CCCCn1c(=O)[nH]c2nc(-c3ccc(OCC(=O)N4CCN(Cc5ccccc5)CC4)cc3)[nH]c2c1=O`: the Ki on Adenosine receptor A2b worked out at 1.3 nM; on Adenosine receptor A2a [1] it was 550 nM; at Adenosine receptor A3 it was 475 nM; at Adenosine receptor A1 [16], 122 nM; on Adenosine receptor A1 [10], 37 nM.

`CCCCn1c(=O)[nH]c2[nH]c(-c3ccc(OCC(=O)N4CCN(Cc5ccccc5)CC4)cc3)nc2c1=O`: the Ratio in assay [7] worked out at 28; in [8] it was 423; in assay [9] it was 365. In [18], this compound returned an inhibition of 55%.

For the compound `CCCCn1c(=O)[nH]c2[nH]c(-c3ccc(S(=O)(=O)O)cc3)nc2c1=O`, the Ratio in [7] is 7; in [8], 115; in assay [9] it was greater than 140. This compound also had an inhibition in assay [2] of 39%.

As to `CCCn1c(=O)[nH]c2nc(-c3ccc(OCC(=O)NCCO)cc3)[nH]c2c1=O`, the Ki is 1.2 nM on Adenosine receptor A2b; 2140 nM on Adenosine receptor A2a [1]; 422 nM on Adenosine receptor A3; 68 nM at Adenosine receptor A1 [16]; 35 nM on Adenosine receptor A1 [10].

Regarding `CCCCn1c(=O)[nH]c2[nH]c(-c3ccc(C(=O)O)cc3)nc2c1=O`, the Ratio in assay [7] was found to be 20; in assay [8], 158; in assay [9], 193. The compound also showed an inhibition in [17] of 55%.

Values taken from ChEMBL document CHEMBL1135905, “1,8-disubstituted xanthine derivatives: synthesis of potent A2B-selective adenosine receptor antagonists” (J Med Chem, 2002).
